Here are results for 2 compounds from patent US7037644B1, “Means and methods for monitoring non-nucleoside reverse transcriptase inhibitor antiretroviral therapy and guiding therapeutic decisions in the treatment of HIV/AIDS” (ViroLogic, Inc., priority 1998, dated 2006).

What all share (type): cell-based, HIV-1
Experiment [1] deals with RTV-209, patient 97-209 (RT E138A, Y188L). Kind of experiment: Phenotypic susceptibility assay (patient RTV). As to conditions: patient RTV pool. The method, then: (§1) The resistance test vectors containing a functional luciferase gene cassette were constructed and host cells were transfected with the resistance test vector DNA. The resistant test vectors contained patient-derived reverse transcriptase and protease sequences that were either susceptible or resistant to the antiretroviral agents, such as nucleoside reverse transcriptase inhibitors, non-nucleoside reverse transcriptase inhibitors and protease inhibitors. […] The IC50 values were determined by plotting percent drug inhibition vs. log10 drug concentration.
(§2) Host cells were seeded in 10-cm-diameter dishes and were transfected several days after plating with resistance test vector plasmid DNA and the envelope expression vector. […] HIV capsid protein (p24) levels in the harvested cell culture media were determined by an EIA method as described by the manufacturer (SIAC; Frederick, Md.). […] The inhibitory effect of the drug was determined using the following equation: % luciferase inhibition=1−(RLUluc [drug]÷RLUluc)×100 where RLUluc [drug] is the relative light unit of luciferase activity in infected cells in the presence of drug and RLUluc is the Relative Light Unit of luciferase activity in infected cells in the absence of drug. […]

Experiment [2] has as its system RTV-675, patient 98-675 (RT A98G). Kind of experiment: Phenotypic susceptibility assay (patient RTV). As to conditions: patient RTV pool. As to the method: as §1, §2
The test system of experiment [3] is RTV-955, patient 98-955 (RT K101E, K103N, Y181C, G190A mixtures). Kind of experiment: Phenotypic susceptibility assay (patient RTV). As to conditions: patient RTV pool. As to the method:
as §1, §2

In experiment [4] the test system is RTV-1058 clone 10 (RT L100I, K103N, Y188L). Briefly: Phenotypic susceptibility assay (patient RTV clone). The text has this: (§3) The resistance test vectors containing a functional luciferase gene cassette were constructed and host cells were transfected with the resistance test vector DNA. The resistant test vectors contained patient-derived reverse transcriptase and protease sequences that were either susceptible or resistant to the antiretroviral agents, such as nucleoside reverse transcriptase inhibitors, non-nucleoside reverse transcriptase inhibitors and protease inhibitors. The resistance test vector viral particles produced by transfecting the resistance test vector DNA into host cells, either in the presence or absence of protease inhibitors, were used to infect target host cells grown either in the absence of NRTI or NNRTI or in the presence of increasing concentrations of the drug. The amount of luciferase activity produced in infected target host cells in the presence of drug was compared to the amount of luciferase produced in infected target host cells in the absence of drug. Drug resistance was measured as the amount of drug required to inhibit by 50% the luciferase activity detected in the absence of drug (inhibitory concentration 50%, IC50). The IC50 values were determined by plotting percent drug inhibition vs. log10 drug concentration.
(§4) Host cells were seeded in 10-cm-diameter dishes and were transfected several days after plating with resistance test vector plasmid DNA and the envelope expression vector. Transfections were performed using a calcium-phosphate precipitation procedure. The cell culture media containing the DNA precipitate was replaced with fresh medium, from one to 24 hours, after transfection. Cell culture media containing resistance test vector viral particles was harvested one to four days after transfection and was passed through a […] filter before being stored at […]. HIV capsid protein (p24) levels in the harvested cell culture media were determined by an EIA method as described by the manufacturer (SIAC; Frederick, Md.). Before infection, target cells (293 and 293/T) were plated in cell culture media. Control infections were performed using cell culture media from mock transfections (no DNA) or transfections containing the resistance test vector plasmid DNA without the envelope expression plasmid. One to three or more days after infection the media was removed and cell lysis buffer (Promega) was added to each well. Cell lysates were assayed for luciferase activity (FIG. 3). The inhibitory effect of the drug was determined using the following equation: % luciferase inhibition=1−(RLUluc [drug]÷RLUluc)×100 where RLUluc [drug] is the relative light unit of luciferase activity in infected cells in the presence of drug and RLUluc is the Relative Light Unit of luciferase activity in infected cells in the absence of drug. IC50 values were obtained from the sigmoidal curves that were generated from the data by plotting the percent inhibition of luciferase activity vs. the log10 drug concentration. The drug inhibition curves are shown in (FIG. 3).
(§5) A resistance test vector was constructed as described in Example 1 from a patient sample designated 98-1058. This patient had been previously treated with ddI, d4T, AZT, 3TC, ddC and abacavir (NRTIs), indinavir and amprenavir (PRIs) and nevirapine (an NNRTI). Isolation of viral RNA and RT/PCR was used to generate a patient derived segment that comprised viral sequences coding for all of RP and aa 1-313 of RT. The PDS was inserted into an indicator gene viral vector to generate a resistance test vector designated RTV-1058. Individual clones of RTV-1058 were selected and were then tested in a phenotypic assay to determine accurately and quantitatively the level of susceptibility to a panel of anti-retroviral drugs. The panel of antiretroviral drugs comprised members of the classes known as NRTIs (AZT, 3TC, d4T, kkI an ddC), NNRTIs (delavirdine and nevirapine), an PRIs (indinavir, nelfinavir, ritonavir, and saquinavir). […]

Experiment [5] has as its system RTV-1058 clone 4 (RT K103N). The description is as above.
Excerpt: as §3, §4, §5

Experiment [6] deals with RTV-1058 clone 5 (RT L100I, K103N). The experiment is described as above.
Excerpt: as §3, §4, §5

Experiment [7] deals with K103N and Y181C double mutant. Kind of experiment: Phenotypic susceptibility assay (site directed mutant RTV). The following applies: FIG. 5.
Excerpt: Phenotypic drug susceptibility and resistance profile of site directed reverse transcriptase mutants.
as §1, §2

For `CC(C)Nc1cccnc1N1CCN(C(=O)c2cc3cc(NS(C)(=O)=O)ccc3[nH]2)CC1` [delavirdine], the figures for the “decrease in susceptibility (fold, IC50)” value in experiment [1], in experiment [2] and in experiment [3] were 75 fold, 2.1 fold and 4 fold, respectively. In addition, the “loss of susceptibility (fold, IC50)” value in experiment [4] is on record as “greater than 250 fold”; in experiment [5], 85 fold; in experiment [6] it was 250 fold. In experiment [7], the “change in susceptibility” value is “further increase in resistance”.
Turning to `Cc1ccnc2c1NC(=O)c1cccnc1N2C1CC1` [nevirapine], the “decrease in susceptibility (fold, IC50)” value is “greater than 800 fold” in experiment [1], 6 fold in experiment [2] and 530 fold in experiment [3]. The “loss of susceptibility (fold, IC50)” value in experiment [4] is reported as “greater than 800 fold”; in experiment [5] it was “greater than 800 fold”; in experiment [6], 120 fold. Besides, in experiment [7], the “change in susceptibility” value was “further increase in resistance”.
